Reference: BindingDB's records for doi:10.1016/j.bmcl.2012.07.045 (Rhône-Poulenc Rorer, 2012)

These molecules were tested against Tyrosine-protein kinase SYK (Homo sapiens) (UniProt P43405) (assay: Inhibition of human recombinant full-length Syk using poly-GT as substrate after 40 mins by radioactive filtration assay).
For Cc1ccnc(Nc2cccc(-c3cccc(N)c3)n2)c1, the IC50 was 3240 nM.
Work on Cc1ccnc(Nc2cccc(-c3cccc(CN)c3)n2)c1 yielded an IC50 of 1670 nM.
In the case of Cc1ccnc(Nc2cccc(-c3cccc(CCN)c3)n2)c1, the IC50 is reported as 160 nM.
Cc1ccnc(Nc2cccc(-c3ccnc(NCCN)c3)n2)c1 gave an IC50 of 200 nM.
For Cc1ccnc(Nc2cccc(-c3ccnc(NCCO)c3)n2)c1, the IC50 was 1870 nM.
In the case of Cc1ccnc(Nc2cccc(-c3ccnc(NCCCN)c3)n2)c1, the IC50 is reported as 528 nM.
Cc1ccnc(Nc2cccc(-c3ccnc(N4CCNCC4)c3)n2)c1 was tested, and the IC50 was 14 nM.
In the case of Cc1ccnc(Nc2cccc(-c3ccnc(N4CCC(N)C4)c3)n2)c1 (configuration not stated), the IC50 is reported as 450 nM.
For Cc1ccnc(Nc2cccc(-c3ccnc(N4CCC(N)CC4)c3)n2)c1, the IC50 was 114 nM.
Work on Cc1ccnc(Nc2cccc(-c3ccnc(N4CCCNCC4)c3)n2)c1 yielded an IC50 of 27 nM.
Molecule FC(F)(F)c1ccnc(Nc2cccc(-c3ccnc(N4CCNCC4)c3)n2)c1 has an IC50 of 1.8 nM.
Molecule c1cc(Nc2cnccn2)nc(-c2ccnc(N3CCNCC3)c2)c1 has an IC50 of 62 nM.
Molecule c1cc(-c2cccc(Nc3cnccn3)n2)cc(N2CCNCC2)c1 has an IC50 of 43 nM.
For Nc1cc(Nc2cnccn2)nc(-c2ccnc(N3CCNCC3)c2)c1, the IC50 was 4 nM.
For CNc1cc(Nc2cnccn2)nc(-c2ccnc(N3CCNCC3)c2)c1, the IC50 was 4 nM.
Oc1ccc(CNc2cc(Nc3cnccn3)nc(-c3ccnc(N4CCNCC4)c3)c2)cc1 gave an IC50 of 8 nM.
For O=C(Nc1cc(Nc2cnccn2)nc(-c2ccnc(N3CCNCC3)c2)c1)C1CCNCC1, the IC50 was 4 nM.
CC(=O)N1CCC(C(=O)Nc2cc(Nc3cnccn3)nc(-c3ccnc(N4CCNCC4)c3)c2)CC1 gave an IC50 of 5 nM.
Work on O=C(Nc1cc(Nc2cnccn2)nc(-c2ccnc(N3CCNCC3)c2)c1)c1ccccc1 yielded an IC50 of 28 nM.
O=C(Nc1cc(Nc2cnccn2)nc(-c2ccnc(N3CCNCC3)c2)c1)c1cccnc1 gave an IC50 of 6 nM.
For Cc1cc(C(=O)Nc2cc(Nc3cnccn3)nc(-c3ccnc(N4CCNCC4)c3)c2)n(C)n1, the IC50 was 7 nM.
Work on O=C(Cc1cccnc1)Nc1cc(Nc2cnccn2)nc(-c2ccnc(N3CCNCC3)c2)c1 yielded an IC50 of 4 nM.
For O=C(O)c1ccc(C(=O)Nc2cc(Nc3cnccn3)nc(-c3ccnc(N4CCNCC4)c3)c2)cc1, the IC50 was 8 nM.
In the case of Cc1ccnc(Nc2cccc(-c3cccc(NCCN)c3)n2)c1, the IC50 is reported as 91 nM.
O=C(Nc1cc(Nc2cnccn2)nc(-c2ccnc(N3CCNCC3)c2)c1)c1ccc(C(=O)O)nc1 gave an IC50 of 10 nM.
Work on Cc1ccnc(Nc2cccc(-c3cccnc3)n2)c1 yielded an IC50 of 2700 nM.
O=C(Nc1cc(Nc2cnccn2)nc(-c2ccnc(N3CCNCC3)c2)c1)c1cncnc1 showed an IC50 of 9 nM.
